{
  "source": "patent US8981106B2",
  "about": "“Pyrimidinecarboxamides as CXCR2 modulators” (Syntrix Biosystems, Inc., priority 2009, dated 2015)",
  "key": {"CXCR2 [1]": {"target": "T1, CXCR2 (Homo sapiens (Human), UniProt P25025)", "experiment": "Agonist activity: intracellular calcium release in human neutrophils in the absence of GROα", "type": "cell-based", "settings": "relative to the response to 25 nM GROα", "protocol": "In Tables 1-5, the IC50 or EC50 values were determined using the following assay. This assay measures intracellular calcium release via fluorescence as an indication of CXCR2 receptor activation by the physiologic agonist GROα. The assay is a Ca^2+ mobilization assay that measures changes in intracellular Ca^2+ with a FlexStation II scanning fluorometer using a FLIPR-3 Calcium Assay Kit (Molecular Devices, Sunnyvale, Calif.). The procedure is as follows:\n9. The maximum change in fluorescence, expressed in arbitrary units over baseline (Max-Min) was used to determine the GROα response. […] Therapeutic Activity\nThe maximum change in fluorescence, expressed in arbitrary units over baseline (Max-Min), was used to determine the GROα response.\nIntracellular calcium release is a hallmark of CXCR2 activation by endogenous agonists, such as GROα and IL-8."}, "CXCR2 [2]": {"target": "T1, CXCR2", "experiment": "Wash-resistant inhibition of GROα-mediated calcium response after inhibitor washout", "type": "cell-based", "settings": "0.4, 2, 10 μM, 30 min incubation, washed, up to 6 h after washout", "description": "The cells were washed and resuspended in RPMI/2% serum (serum was obtained from the same donor as the neutrophils). The concentration of the neutrophil suspension was 10^7 cells/mL. […] The neutrophils were washed and resuspended in RPMI/2% serum and maintained at room temperature. At 30 minutes before each time point, a 56.25 μL aliquot of the neutrophils were removed and loaded for 30 minutes at room temperature in the dark with FLIPR-3 reagent (262.5 μL per tube)."}, "neutrophil influx [3]": {"test_system": "neutrophil influx", "experiment": "Murine air pouch model of neutrophil chemotaxis (p.o.)", "type": "in vivo, male CD-1 mice", "protocol": "Compounds 1 (SX-517) and 2 (SX-576) were also assayed in an in vivo air-pouch model of inflammation. SX-517 and SX-576 were able to attenuate neutrophil influx in the air-pouch model by about 50% at an oral dose of 0.2 and 0.05 mg/kg, respectively. […] More specifically, the procedure was performed by forming an air pouch on the backs of male CD-1 mice via the subcutaneous injection of air (2 mL). The next day, an additional subcutaneous injection of air (1.5 mL) was performed to reinflate the air pouch. The mice were given either vehicle control (Labrasol®) or test compound solubilized in Labrasol® via oral gavage. After 3 hours, either sterile phosphate buffered saline (PBS, 1 ml) or 2% carrageenan in sterile PBS (1 mL) was injected into the air pouch. After 4 hours, the mice were sedated with ketamine, and sacrificed by cervical dislocation. The exudate in the air pouch was collected by syringe, with an additional 2 mL wash with sterile PBS. The neutrophils were stained with trypan blue and counted on a hemocytometer under 20× magnification."}, "neutrophil influx [4]": {"test_system": "neutrophil influx", "experiment": "Murine air pouch model of neutrophil chemotaxis (i.v.)", "type": "in vivo, male CD-1 mice", "settings": "i.v., 0.02, 0.05, 0.2 and 1.0 mg/kg", "protocol": "The procedure was performed by forming an air pouch on the backs of male CD-1 mice via the subcutaneous injection of air (2 mL). The next day, an additional subcutaneous injection of air (1.5 mL) was performed to reinflate the air pouch. The mice were given either vehicle control (dimethylformamide/PEG400/saline) or test compound solubilized in vehicle via tail vein injection. After 30 minutes, either sterile phosphate buffered saline (PBS, 1 ml) or 2% carrageenan in sterile PBS (1 mL) was injected into the air pouch. After 4 hours, the mice were sedated with ketamine, and sacrificed by cervical dislocation. The exudate in the air pouch was collected by syringe, with an additional 2 mL wash with sterile PBS. The neutrophils were stained with trypan blue and counted on a hemocytometer under 20× magnification."}, "pulmonary inflammation": {"test_system": "pulmonary inflammation", "experiment": "Ozone rat model of pulmonary inflammation", "type": "in vivo, Sprague-Dawley rats", "settings": "1 mg/kg i.v., 1 ppm ozone, BALF at 24 hours", "protocol": "Activity in this model of pulmonary inflammation would provide direct relevance towards the treatment of a number of pulmonary inflammatory diseases, including chronic obstructive pulmonary disease (COPD) and bronchopulmonary dysplasia (BPD). In this experiment, Sprague-Dawley rats (n=4 per cohort) were dosed intravenously at t=0 with either vehicle (negative and positive groups, dimethylformamide/PEG400/saline, 40:40:20) or SX-576 (1 mg/kg). The rats were then placed in air (negative group) or 1 ppm ozone (positive and SX-576 groups) for 4 hours. The rats were dosed again at t=5 and 9 hours. The rats were then sacrificed at t=24 hours, and the bronchoalveolar lavage fluid (BALF) was collected. The cells were spun down, stained with Wright-Giemsa and counted. In the negative groups, no neutrophils were observed when stained. As a measure of lung leakage/damage, protein levels were quantified in BALF by Bradford protein assay analysis."}, "[5]": {"experiment": "Crossover pharmacokinetic experiment in Beagle dogs", "type": "in vivo", "protocol": "In this study, male Beagle dogs (n=5) were dosed intravenously on study day 1 with SX-576 in dimethylformamide/PEG400/saline (40:40:20) at a dose level of 5 mg/kg and a dose volume of 0.5 mL/kg. Blood samples were taken predose, and at time points 30, 60, 90, 120, 180, 360, 540 and 720 minutes. The blood was collected in tubes containing K2EDTA as an anticoagulant, and the tubes were centrifuged and the plasma fractions collected and frozen. After a one-week washout period, the same Beagle dogs were dosed orally with SX-576 in lipid based excipient Gelucire® 44/14 (Gattefosse) at a dose level of 5 mg/kg. Blood samples were then taken and plasma fractions collected as previously described. Prior to analysis, the plasma samples were thawed and diluted 1:3 into acetonitrile containing 1 μM of compound 153 as an internal standard. The resulting samples were centrifuged and the supernatant analyzed by LC-MS monitoring in multiple reaction monitoring mode. The samples were run concomitantly with a calibration curve of SX-576 in the same internal standard solution.\nThe lipid based excipient Gelucire® 44/14 is a self-emulsifying drug delivery system (SEDDS) that is able to solubilize both SX-517 and SX-576 into aqueous solutions via micellular formation. […] Therefore, lipid-based emulsifiers are important excipients for the oral delivery of SX-576."}, "Aqueous solubility": {"experiment": "Aqueous solubility", "type": "physicochemical"}, "CXCR2 [6]": {"target": "T1, CXCR2", "experiment": "β-arrestin recruitment, β-galactosidase fragment complementation (DiscoveRx)"}},
  "note": "Entries after “also recorded” stand apart in the source; their conditions may differ.",
  "data": [
    {"smiles": "O=C(Nc1ccc(F)cc1)c1ccc(SCc2cc(OC(F)(F)F)ccc2B(O)O)nc1", "note": "[Compound 2, 6-(2-boronic acid-5-trifluoromethoxy-benzylsulfanyl)-N-(4-fluoro-phenyl)-nicotinamide]", "values": [
      {"measurement": "Magnitude of Agonist Response (% of GROα only Control)", "setting": "CXCR2 [1]", "result": 100, "unit": "%"},
      {"measurement": "wash-resistant inhibition of GROα mediated intracellular calcium release", "setting": "CXCR2 [2]", "result": "dose-dependent and wash-resistant inhibition"},
      {"measurement": "total neutrophil counts in the blood", "setting": "neutrophil influx [3]; high doses, compared to control animals", "result": "not significantly changed"},
      {"measurement": "attenuation of neutrophil influx", "setting": "neutrophil influx [3]; oral dose 0.05 mg/kg", "result": "about 50%"},
      {"measurement": "neutrophil influx", "setting": "neutrophil influx [3]; p.o., 0.05 mg/kg", "result": "decrease of neutrophil influx"},
      {"measurement": "neutrophil influx at high oral dose", "setting": "neutrophil influx [3]; p.o., doses in excess of 1 mg/kg", "result": "increase in neutrophil influx"},
      {"measurement": "neutrophil influx", "setting": "neutrophil influx [4]", "result": "significantly attenuate neutrophil influx"},
      {"measurement": "influx of macrophages into the lungs", "setting": "pulmonary inflammation", "result": "significantly decreased"},
      {"measurement": "influx of neutrophils into the lungs", "setting": "pulmonary inflammation", "result": "significantly decreased"},
      {"measurement": "ozone-induced lung damage (protein levels in the BALF)", "setting": "pulmonary inflammation", "result": "protected against ozone-induced lung damage"},
      {"measurement": "bioavailability following oral administration", "setting": "[5]; 5 mg/kg oral in Gelucire 44/14", "result": "improved the bioavailability"},
      {"measurement": "plasma level when dosed without excipient", "setting": "[5]; without excipient", "result": "undetected in plasma"},
      {"measurement": "aqueous solubility", "setting": "Aqueous solubility", "result": "poor aqueous solubility"},
      {"measurement": "activity on β-arrestin complexation with CXCR2 in the absence of IL8", "setting": "CXCR2 [6]; absence of IL8", "result": "inverse agonists"},
      {"measurement": "inhibition of β-arrestin recruitment following CXCR2 activation with IL8", "setting": "CXCR2 [6]; with IL8, listed as SX-576", "result": "inhibited arrestin recruitment; also recorded: more potent inhibitor than SX-517, comparable to the diarylurea SB225002"}
    ]}
  ]
}
